The target in test [1] is T1, HiBit-BRG1 fusion protein (Homo sapiens, UniProt P51532).
T1 construct: expressed in transfected cells
The test is described as follows: HiBiT-BRG1 cell-based degradation assay (Nano-Glo HiBiT Lytic Detection, 24 h). To be noted: HeLa cells expressing HiBit-BRG1 and LgBit; for DC50: read-out: BRG1 HiBit Degradation IC50; for Dmax: HeLa, top dose 30 μM, read-out: BRG1 HiBit Degradation Maximum measured. In a few lines:
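Degradation is scaled from DMSO-treated cells (0%) to cells given 2 μM of a known BRM/BRG1 degrader (100%). HeLa cells stably carrying HiBiT-BRG1 plus LgBiT (5000/well) were lysed with Nano-Glo HiBiT detection reagent, shaken 10 min at RT, and luminescence read.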
A general note: The HiBiT peptide binds its large partner to form an active luciferase.

The target in a further test is T2, HiBit-BRM fusion protein (Homo sapiens, UniProt P51531).
T2 construct: expressed in transfected cells
T2 sequence (P51531 whole entry, the tested form may be a part): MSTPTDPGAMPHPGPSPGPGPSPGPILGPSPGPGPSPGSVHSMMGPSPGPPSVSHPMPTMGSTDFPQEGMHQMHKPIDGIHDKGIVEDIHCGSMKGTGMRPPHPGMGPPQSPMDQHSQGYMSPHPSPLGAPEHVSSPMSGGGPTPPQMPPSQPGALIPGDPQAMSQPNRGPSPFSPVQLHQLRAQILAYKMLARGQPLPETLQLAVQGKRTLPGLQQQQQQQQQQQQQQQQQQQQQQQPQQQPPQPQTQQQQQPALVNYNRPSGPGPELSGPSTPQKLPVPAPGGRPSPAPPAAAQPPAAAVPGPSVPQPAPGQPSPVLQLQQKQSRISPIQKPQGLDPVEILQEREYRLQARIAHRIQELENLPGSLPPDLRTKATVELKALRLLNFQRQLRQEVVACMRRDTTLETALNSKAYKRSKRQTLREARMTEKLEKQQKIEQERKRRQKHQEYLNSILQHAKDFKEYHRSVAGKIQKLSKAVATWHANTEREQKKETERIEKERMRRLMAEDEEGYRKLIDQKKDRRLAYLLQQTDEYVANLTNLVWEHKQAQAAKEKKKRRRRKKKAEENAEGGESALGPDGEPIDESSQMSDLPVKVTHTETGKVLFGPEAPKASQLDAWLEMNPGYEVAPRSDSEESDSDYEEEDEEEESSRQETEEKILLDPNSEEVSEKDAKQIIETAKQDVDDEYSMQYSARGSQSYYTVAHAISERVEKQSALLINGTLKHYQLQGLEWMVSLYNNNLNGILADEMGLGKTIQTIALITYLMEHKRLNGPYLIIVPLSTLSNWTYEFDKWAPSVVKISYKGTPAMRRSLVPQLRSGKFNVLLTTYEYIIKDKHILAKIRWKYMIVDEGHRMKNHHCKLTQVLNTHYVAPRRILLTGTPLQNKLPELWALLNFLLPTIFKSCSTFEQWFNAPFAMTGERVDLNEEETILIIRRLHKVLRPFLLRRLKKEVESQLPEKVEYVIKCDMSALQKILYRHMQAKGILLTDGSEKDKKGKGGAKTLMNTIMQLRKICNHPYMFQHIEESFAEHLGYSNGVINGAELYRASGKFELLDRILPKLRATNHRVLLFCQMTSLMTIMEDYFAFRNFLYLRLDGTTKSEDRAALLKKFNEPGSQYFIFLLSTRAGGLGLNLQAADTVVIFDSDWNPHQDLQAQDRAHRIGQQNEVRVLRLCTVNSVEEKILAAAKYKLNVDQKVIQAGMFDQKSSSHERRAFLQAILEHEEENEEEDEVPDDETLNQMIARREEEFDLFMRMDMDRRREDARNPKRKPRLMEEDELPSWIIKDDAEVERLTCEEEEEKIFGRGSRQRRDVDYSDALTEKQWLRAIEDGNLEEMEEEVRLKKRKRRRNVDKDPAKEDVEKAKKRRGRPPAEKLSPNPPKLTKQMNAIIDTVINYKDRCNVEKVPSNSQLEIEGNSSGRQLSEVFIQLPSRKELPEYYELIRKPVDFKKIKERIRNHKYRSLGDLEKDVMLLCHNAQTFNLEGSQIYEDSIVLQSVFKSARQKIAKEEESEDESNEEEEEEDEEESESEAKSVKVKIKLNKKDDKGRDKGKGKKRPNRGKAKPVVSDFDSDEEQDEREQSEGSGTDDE
The test is described as follows: HiBiT-BRM cell-based degradation assay (Nano-Glo HiBiT Lytic Detection, 24 h). To be noted: HeLa cells expressing HiBiT-BRM; for DC50: read-out: BRM HiBit Degradation IC50; for BRM HiBit Degradation Maximum measured: top dose 30 μM. Summed up: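 Stable HiBiT-BRM HeLa line; 24 h compound exposure, top final 30 μM, 3-fold, 10 pts in duplicate. Lytic HiBiT/LgBiT luminescence readout. % degradation vs DMSO (0%) and 2 μM known BRM/BRG1 degrader (100%).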

Here are results for 13 molecules from patent publication US12662479B2 (Foghorn Therapeutics Inc., priority 2020, dated 2026).

The structures appear in SMILES notation.

T1 sequence (P51532 whole entry, the tested form may be a part): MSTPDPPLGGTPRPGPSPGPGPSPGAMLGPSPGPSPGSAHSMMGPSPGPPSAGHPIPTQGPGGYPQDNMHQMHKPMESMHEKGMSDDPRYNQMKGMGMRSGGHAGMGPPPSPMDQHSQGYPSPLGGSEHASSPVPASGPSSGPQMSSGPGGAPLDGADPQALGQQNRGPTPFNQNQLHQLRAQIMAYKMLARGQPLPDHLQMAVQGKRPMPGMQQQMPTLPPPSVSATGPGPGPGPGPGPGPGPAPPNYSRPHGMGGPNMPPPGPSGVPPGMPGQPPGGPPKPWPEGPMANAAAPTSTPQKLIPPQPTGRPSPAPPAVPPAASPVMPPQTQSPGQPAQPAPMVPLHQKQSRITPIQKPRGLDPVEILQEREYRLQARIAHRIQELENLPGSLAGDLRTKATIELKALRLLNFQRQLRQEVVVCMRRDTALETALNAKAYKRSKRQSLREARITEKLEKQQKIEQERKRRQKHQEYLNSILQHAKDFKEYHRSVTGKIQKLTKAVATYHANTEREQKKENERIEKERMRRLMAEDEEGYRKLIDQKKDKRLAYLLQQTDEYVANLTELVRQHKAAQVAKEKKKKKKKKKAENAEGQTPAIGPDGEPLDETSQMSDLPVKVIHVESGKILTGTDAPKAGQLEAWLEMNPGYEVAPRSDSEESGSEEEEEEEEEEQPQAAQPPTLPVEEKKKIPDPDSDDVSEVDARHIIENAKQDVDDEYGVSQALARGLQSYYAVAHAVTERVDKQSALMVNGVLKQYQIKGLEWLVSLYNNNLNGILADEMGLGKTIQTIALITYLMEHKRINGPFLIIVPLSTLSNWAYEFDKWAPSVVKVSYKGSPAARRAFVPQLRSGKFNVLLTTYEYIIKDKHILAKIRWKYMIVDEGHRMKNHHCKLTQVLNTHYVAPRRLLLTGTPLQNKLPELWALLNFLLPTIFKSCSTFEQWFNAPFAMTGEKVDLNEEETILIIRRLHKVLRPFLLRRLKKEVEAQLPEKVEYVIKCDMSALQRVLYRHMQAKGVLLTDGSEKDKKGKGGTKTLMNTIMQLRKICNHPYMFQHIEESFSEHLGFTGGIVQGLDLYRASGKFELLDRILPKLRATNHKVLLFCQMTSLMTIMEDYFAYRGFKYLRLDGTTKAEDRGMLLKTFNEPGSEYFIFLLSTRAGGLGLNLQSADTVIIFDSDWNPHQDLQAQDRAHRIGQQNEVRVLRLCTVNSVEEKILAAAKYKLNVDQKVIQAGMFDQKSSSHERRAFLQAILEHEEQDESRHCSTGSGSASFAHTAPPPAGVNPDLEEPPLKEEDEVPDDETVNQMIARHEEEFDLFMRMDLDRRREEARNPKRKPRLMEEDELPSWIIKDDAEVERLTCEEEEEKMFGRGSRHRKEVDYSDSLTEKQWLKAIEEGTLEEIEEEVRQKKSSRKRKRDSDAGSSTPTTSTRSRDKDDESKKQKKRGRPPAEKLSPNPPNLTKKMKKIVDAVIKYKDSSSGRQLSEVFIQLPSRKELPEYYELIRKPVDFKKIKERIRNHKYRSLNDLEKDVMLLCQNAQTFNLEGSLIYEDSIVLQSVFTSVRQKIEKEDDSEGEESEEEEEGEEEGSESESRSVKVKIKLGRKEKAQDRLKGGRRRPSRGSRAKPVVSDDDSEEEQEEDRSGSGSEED

With `CS(=O)(=O)n1ccc(C(=O)N[C@@H](CCCCNC(=O)CCOCCOCCOc2cccc3c2C(=O)N(C2CCC(=O)NC2=O)C3=O)C(=O)Nc2nc(-c3ccccc3)cs2)c1` (stereo partly drawn) [Compound 288, (2S)-6-[3-[2-(2-[[2-(2,6-dioxopiperidin-3-yl)-1,3-dioxoisoindol-4-yl]oxy]ethoxy)ethoxy]propanamido]-2-[(1-methanesulfonylpyrrol-3-yl)formamido]-N-(4-phenyl-1,3-thiazol-2-yl)hexanamide], in test [1], the DC50 is over 10 µM and the Dmax is under 50%. In addition, at HiBit-BRM fusion protein, the DC50 was over 10 µM and the “BRM HiBit Degradation Maximum measured” value is “C (‘C’ = Maximum degradation <50%)”.

Consider `CS(=O)(=O)n1ccc(C(=O)N[C@@H](COCc2ccc(C(=O)N3CCC(CN4CCN(c5ccc6c(c5)C(=O)N(C5CCC(=O)NC5=O)C6=O)CC4)CC3)cc2)C(=O)Nc2nc(-c3ccccc3)cs2)c1` (stereo partly drawn) [Compound 192, (2S)-3-([4-[4-([4-[2-(2,6-dioxopiperidin-3-yl)-1,3-dioxoisoindol-5-yl]piperazin-1-yl]methyl)piperidine-1-carbonyl]phenyl]methoxy)-2-[(1-methanesulfonylpyrrol-3-yl)formamido]-N-(4-phenyl-1,3-thiazol-2-yl)propanamide; formic acid], for which, in test [1], the DC50 was over 10 µM and the Dmax was under 50%. Further, on HiBit-BRM fusion protein, the DC50 is over 10 µM and the “BRM HiBit Degradation Maximum measured” value was “C (‘C’ = Maximum degradation <50%)”.

For the molecule `CS(=O)(=O)n1ccc(C(=O)NCC(=O)Nc2nc(-c3cccc(-c4ccnc(C5(C(=O)NCCNc6cccc7c6CN(C6CCC(=O)NC6=O)C7=O)CC5)c4)c3)cs2)c1` (stereo not shown) [Compound 169, N-(2-((4-(3-(2-(1-((2-((2-(2,6-dioxopiperidin-3-yl)-1-oxoisoindolin-4-yl)amino)ethyl)carbamoyl)cyclopropyl)pyridin-4-yl)phenyl)thiazol-2-yl)amino)-2-oxoethyl)-1-(methylsulfonyl)-1H-pyrrole-3-carboxamide], in test [1], the DC50 is over 10 µM and the Dmax was under 50%. Also, on HiBit-BRM fusion protein, the DC50 was over 10 µM and the “BRM HiBit Degradation Maximum measured” value was “C (‘C’ = Maximum degradation <50%)”.

For `Cc1ncsc1-c1ccc(CNC(=O)[C@@H]2C[C@@H](O)CN2C(=O)[C@@H](NC(=O)CCCCC(=O)NCc2cccc(-c3cccc(-c4csc(NC(=O)CNC(=O)c5ccn(S(C)(=O)=O)c5)n4)c3)c2)C(C)(C)C)cc1` [Compound 48, N1-((S)-1-((2S,4R)-4-hydroxy-2-((4-(4-methylthiazol-5-yl)benzyl)carbamoyl)pyrrolidin-1-yl)-3,3-dimethyl-1-oxobutan-2-yl)-N6-((3′-(2-(2-(1-(methylsulfonyl)-1H-pyrrole-3-carboxamido)acetamido)thiazol-4-yl)-[1,1′-biphenyl]-3-yl)methyl)adipamide], in test [1], the DC50 lay in the range of 1 to 10 µM and the Dmax lay within 50 to 75%. For the same molecule, on HiBit-BRM fusion protein, the DC50 was over 10 µM and the “BRM HiBit Degradation Maximum measured” value is reported as “C (‘C’ = Maximum degradation <50%)”.

Take `Cc1ncsc1-c1ccc(CNC(=O)[C@@H]2C[C@@H](O)CN2C(=O)[C@@H](NC(=O)CCCCC(=O)NCc2ccc(COC[C@H](NC(=O)c3ccn(S(C)(=O)=O)c3)C(=O)Nc3nc(-c4ccccc4)cs3)cc2)C(C)(C)C)cc1` [Compound 208, N-[(2S)-1-[(2S,4R)-4-hydroxy-2-([[4-(4-methyl-1,3-thiazol-5-yl)phenyl]methyl]carbamoyl)pyrrolidin-1-yl]-3,3-dimethyl-1-oxobutan-2-yl]-N′-[(4-[[(2S)-2-[(1-methanesulfonylpyrrol-3-yl)formamido]-2-[(4-phenyl-1,3-thiazol-2-yl)carbamoyl]ethoxy]methyl]phenyl)methyl]hexanediamide]: in test [1], the DC50 was over 10 µM and the Dmax is under 50%. In addition, at HiBit-BRM fusion protein, the DC50 is over 10 µM and the “BRM HiBit Degradation Maximum measured” value is “C (‘C’ = Maximum degradation <50%)”.

With `Cc1ncsc1-c1ccc(CNC(=O)[C@@H]2C[C@@H](O)CN2C(=O)[C@@H](NC(=O)COCCOCCNC(=O)CCCOCC[C@H](NC(=O)c2ccn(S(C)(=O)=O)c2)C(=O)Nc2nc(-c3ccccc3)cs2)C(C)(C)C)cc1` [Compound 249, (2S,4R)-4-hydroxy-1-[(2S)-2-[2-[2-(2-[4-[(3S)-3-[(1-methanesulfonylpyrrol-3-yl)formamido]-3-[(4-phenyl-1,3-thiazol-2-yl)carbamoyl]propoxy]butanamido]ethoxy)ethoxy]acetamido]-3,3-dimethylbutanoyl]-N-[[4-(4-methyl-1,3-thiazol-5-yl)phenyl]methyl]pyrrolidine-2-carboxamide], in test [1], the DC50 is over 10 µM and the Dmax was under 50%. On HiBit-BRM fusion protein, the DC50 was over 10 µM and the “BRM HiBit Degradation Maximum measured” value is given as “C (‘C’ = Maximum degradation <50%)”.

`CS(=O)(=O)n1ccc(C(=O)N[C@@H](COCCCC(=O)NCCCCS(=O)(=O)CCCNc2cccc3c2C(=O)N(C2CCC(=O)NC2=O)C3=O)C(=O)Nc2nc(-c3ccccc3)cs2)c1` (stereo partly shown) [Compound 172]: in test [1], the DC50 was over 10 µM and the Dmax is under 50%. Besides, on HiBit-BRM fusion protein, the DC50 was over 10 µM and the “BRM HiBit Degradation Maximum measured” value is recorded as “C (‘C’ = Maximum degradation <50%)”.

Regarding `Cc1ncsc1-c1ccc(CNC(=O)[C@@H]2C[C@@H](O)CN2C(=O)[C@@H](NC(=O)CCCCCC(=O)N2CCN(c3cc(-c4cccc(-c5csc(NC(=O)CNC(=O)c6ccn(S(C)(=O)=O)c6)n5)c4)ccn3)CC2)C(C)(C)C)cc1` [Compound 86, N-(2-((4-(3-(2-(4-(7-(((S)-1-((2S,4R)-4-hydroxy-2-((4-(4-methylthiazol-5-yl)benzyl)carbamoyl)pyrrolidin-1-yl)-3,3-dimethyl-1-oxobutan-2-yl)amino)-7-oxoheptanoyl)piperazin-1-yl)pyridin-4-yl)phenyl)thiazol-2-yl)amino)-2-oxoethyl)-1-(methylsulfonyl)-1H-pyrrole-3-carboxamide], in test [1], the DC50 was 0.1 to 1 µM and the Dmax was in the range of 50 to 75%. At HiBit-BRM fusion protein, the DC50 lay within 0.1 to 1 µM; the “BRM HiBit Degradation Maximum measured” value is “B (‘B’ = Maximum degradation ≥50% and ≤75%)”.

Consider `CS(=O)(=O)n1ccc(C(=O)N[C@@H](CCOCCCC(=O)NCCCCCNc2ccc3c(c2)C(=O)N(C2CCC(=O)NC2=O)C3=O)C(=O)Nc2nc(-c3ccccc3)cs2)c1` (stereo partly drawn) [Compound 287, (2S)-4-[3-[(5-[[2-(2,6-dioxopiperidin-3-yl)-1,3-dioxoisoindol-5-yl]amino]pentyl)carbamoyl]propoxy]-2-[(1-methanesulfonylpyrrol-3-yl)formamido]-N-(4-phenyl-1,3-thiazol-2-yl)butanamide], for which, in test [1], the DC50 is over 10 µM and the Dmax was under 50%. Moreover, on HiBit-BRM fusion protein, the DC50 was over 10 µM and the “BRM HiBit Degradation Maximum measured” value was “C (‘C’ = Maximum degradation <50%)”.

In the case of `CS(=O)(=O)n1ccc(C(=O)N[C@@H](CCOCCCC(=O)NCCCCCCNc2ccc3c(c2)C(=O)N(C2CCC(=O)NC2=O)C3=O)C(=O)Nc2nc(-c3ccccc3)cs2)c1` (stereo partly drawn) [Compound 283, (2S)-4-[3-[(6-[[2-(2,6-dioxopiperidin-3-yl)-1,3-dioxoisoindol-5-yl]amino]hexyl)carbamoyl]propoxy]-2-[(1-methanesulfonylpyrrol-3-yl)formamido]-N-(4-phenyl-1,3-thiazol-2-yl)butanamide], in test [1], the DC50 was over 10 µM and the Dmax was under 50%. At HiBit-BRM fusion protein, the DC50 was over 10 µM and the “BRM HiBit Degradation Maximum measured” value was “C (‘C’ = Maximum degradation <50%)”.

Take `CS(=O)(=O)n1ccc(C(=O)N[C@@H](COCc2ccc(C(=O)NCCCCNc3ccc4c(c3)C(=O)N(C3CCC(=O)NC3=O)C4=O)cc2)C(=O)Nc2nc(-c3ccccc3)cs2)c1` (stereo partly shown) [Compound 242]: in test [1], the DC50 lay in the range of 0.1 to 1 µM and the Dmax was 50 to 75%. For the same molecule, at HiBit-BRM fusion protein, the DC50 was in the range of 0.1 to 1 µM; the “BRM HiBit Degradation Maximum measured” value is “B (‘B’ = Maximum degradation ≥50% and ≤75%)”.

For the molecule `CS(=O)(=O)n1ccc(C(=O)NCC(=O)Nc2nc(-c3cccc(-c4ccnc(N5CCN(C(=O)CCCOc6cccc7c6C(=O)N(C6CCC(=O)NC6=O)C7=O)CC5)c4)c3)cs2)c1` (stereo not shown) [Compound 33, N-[2-[[4-[3-[2-[4-[4-[2-(2,6-dioxo-3-piperidyl)-1,3-dioxo-isoindolin-4-yl]oxybutanoyl]piperazin-1-yl]-4-pyridyl]phenyl]thiazol-2-yl]amino]-2-oxo-ethyl]-1-methylsulfonyl-pyrrole-3-carboxamide], in test [1], the DC50 was over 10 µM and the Dmax was under 50%. Further, at HiBit-BRM fusion protein, the DC50 is over 10 µM and the “BRM HiBit Degradation Maximum measured” value is listed as “C (‘C’ = Maximum degradation <50%)”.

As to `Cc1ncsc1-c1ccc(CNC(=O)[C@@H]2C[C@@H](O)CN2C(=O)[C@@H](NC(=O)COCCOCCOCCNC(=O)c2ccc(COC[C@H](NC(=O)c3ccn(S(C)(=O)=O)c3)C(=O)Nc3nc(-c4ccccc4)cs3)cc2)C(C)(C)C)cc1` [Compound 189, (2S,4R)-4-hydroxy-1-[(2S)-2-[2-[2-(2-[2-[(4-[[(2S)-2-[(1-methanesulfonylpyrrol-3-yl)formamido]-2-[(4-phenyl-1,3-thiazol-2-yl)carbamoyl]ethoxy]methyl]phenyl)formamido]ethoxy]ethoxy)ethoxy]acetamido]-3,3-dimethylbutanoyl]-N-[[4-(4-methyl-1,3-thiazol-5-yl)phenyl]methyl]pyrrolidine-2-carboxamide], in test [1], the DC50 was over 10 µM and the Dmax is under 50%. At HiBit-BRM fusion protein, the DC50 was over 10 µM and the “BRM HiBit Degradation Maximum measured” value was “C (‘C’ = Maximum degradation <50%)”.
